According to patent US20170008888A1 (KYORIN PHARMACEUTICAL CO., LTD., priority 2014, published 2017):

Assays:
ACK = molecular target: T1, ACK (Homo sapiens, UniProt Q07912); test: Probe-based (AX9989) kinase profiling in Jurkat lysate: ACK; type: binding; details: screening concentration 1 μM; read-out: ACK Inhibition % at indicated screening concentration
T1 construct: screened for activity against several kinases in Jurkat cells; endogenous in cells; host or cells: Jurkat cell lysate
Procedure, shortened: (§1)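 Percent inhibition was derived from reduced LC/MS fragment intensities of probe-labeled peptides relative to compound-free controls. Before labeling with 5 μM AX9989, Mn2+-supplemented (20 mM) Jurkat lysate was exposed to compound for 15 min at room temperature.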

JAK1 = molecular target: T2, JAK1 (Homo sapiens, UniProt P23458); test: Probe-based (AX9989) kinase profiling in Jurkat lysate: JAK1; type: binding; details: screening concentration 1 μM; read-out: JAK1 Inhibition % at indicated screening concentration
T2 construct: screened for activity against several kinases in Jurkat cells; endogenous in cells; host or cells: Jurkat cell lysate
T2 sequence (P23458 whole entry): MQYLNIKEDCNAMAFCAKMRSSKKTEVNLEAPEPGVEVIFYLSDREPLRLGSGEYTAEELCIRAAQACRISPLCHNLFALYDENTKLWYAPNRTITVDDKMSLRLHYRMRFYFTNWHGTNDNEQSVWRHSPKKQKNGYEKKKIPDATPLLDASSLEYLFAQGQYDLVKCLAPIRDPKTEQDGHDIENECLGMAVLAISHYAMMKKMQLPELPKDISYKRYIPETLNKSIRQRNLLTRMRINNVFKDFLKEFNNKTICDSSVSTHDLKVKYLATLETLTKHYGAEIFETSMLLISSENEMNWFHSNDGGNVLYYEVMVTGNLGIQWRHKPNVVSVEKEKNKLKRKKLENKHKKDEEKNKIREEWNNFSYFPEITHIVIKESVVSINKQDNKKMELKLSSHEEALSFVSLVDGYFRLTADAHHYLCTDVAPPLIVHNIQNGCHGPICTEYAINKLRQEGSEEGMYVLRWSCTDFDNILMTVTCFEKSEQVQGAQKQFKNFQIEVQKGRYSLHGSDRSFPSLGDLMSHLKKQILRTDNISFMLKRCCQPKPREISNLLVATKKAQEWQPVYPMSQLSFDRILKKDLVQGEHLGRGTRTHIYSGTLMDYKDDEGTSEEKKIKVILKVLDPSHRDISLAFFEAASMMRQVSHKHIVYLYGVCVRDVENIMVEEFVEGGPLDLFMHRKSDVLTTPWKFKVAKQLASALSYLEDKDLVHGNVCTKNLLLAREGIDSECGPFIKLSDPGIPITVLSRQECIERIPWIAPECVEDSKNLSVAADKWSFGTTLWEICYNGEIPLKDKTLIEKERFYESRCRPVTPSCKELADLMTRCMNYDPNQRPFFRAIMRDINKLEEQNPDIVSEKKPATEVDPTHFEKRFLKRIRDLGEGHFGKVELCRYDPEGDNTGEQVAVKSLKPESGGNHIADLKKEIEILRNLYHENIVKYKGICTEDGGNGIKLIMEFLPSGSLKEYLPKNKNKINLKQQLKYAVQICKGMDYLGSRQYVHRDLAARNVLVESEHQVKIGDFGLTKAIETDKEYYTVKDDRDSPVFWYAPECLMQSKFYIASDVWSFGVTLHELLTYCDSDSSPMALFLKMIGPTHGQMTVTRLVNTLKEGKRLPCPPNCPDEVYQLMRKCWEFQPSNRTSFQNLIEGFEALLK
Procedure, shortened: as §1

ABL or ARG = test: Probe-based (AX9989) kinase profiling in Jurkat lysate: ABL or ARG; type: binding; details: screening concentration 1 μM
Procedure, shortened: as §1

ERK5 = molecular target: T3, ERK5 (Homo sapiens, UniProt Q13164); test: Probe-based (AX9989 acyl phosphate ATP probe) kinase profiling in Jurkat lysate: ERK5; type: binding; details: for IC50: calculated from percent inhibition and screening concentration, Jurkat lysate, AX9989 probe; for inhibition at 1 µM: screening concentration 1 μM, read-out: ERK5 Inhibition % at indicated screening concentration
T3 construct: screened for activity against several kinases in Jurkat cells; endogenous in cells; host or cells: Jurkat cell lysate
T3 sequence (Q13164 whole entry): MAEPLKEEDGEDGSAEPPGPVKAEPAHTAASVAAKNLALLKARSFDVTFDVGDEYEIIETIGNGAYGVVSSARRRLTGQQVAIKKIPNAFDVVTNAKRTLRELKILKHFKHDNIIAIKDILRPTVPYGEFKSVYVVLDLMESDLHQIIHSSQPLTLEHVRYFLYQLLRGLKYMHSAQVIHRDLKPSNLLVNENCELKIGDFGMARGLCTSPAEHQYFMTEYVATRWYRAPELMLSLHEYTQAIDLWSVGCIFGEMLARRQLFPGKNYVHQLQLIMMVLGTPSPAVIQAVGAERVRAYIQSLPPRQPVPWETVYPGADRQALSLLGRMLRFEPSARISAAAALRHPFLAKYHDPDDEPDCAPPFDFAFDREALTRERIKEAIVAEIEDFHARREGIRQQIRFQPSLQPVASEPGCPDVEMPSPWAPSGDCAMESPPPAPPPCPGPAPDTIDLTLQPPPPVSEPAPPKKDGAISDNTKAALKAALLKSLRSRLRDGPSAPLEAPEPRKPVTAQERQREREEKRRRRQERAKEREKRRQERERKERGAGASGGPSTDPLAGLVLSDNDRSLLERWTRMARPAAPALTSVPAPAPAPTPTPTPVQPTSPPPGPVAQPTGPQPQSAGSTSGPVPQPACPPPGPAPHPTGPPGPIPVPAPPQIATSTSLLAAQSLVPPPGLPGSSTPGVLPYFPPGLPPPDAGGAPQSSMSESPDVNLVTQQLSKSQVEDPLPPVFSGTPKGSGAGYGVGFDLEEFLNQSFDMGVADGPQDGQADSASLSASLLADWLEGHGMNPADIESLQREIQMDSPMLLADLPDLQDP
Procedure, shortened: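 ERK5 IC50 values came from percent inhibition at the screening concentration, measured as loss of LC/MS signal of probe-labelled active-site peptides. Compound was added for 15 min at room temperature to Jurkat lysate (5 mg/ml, 20 mM MnCl2) before labelling with AX9989 ATP acyl phosphate probe at 5 μM.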

human PBMCs = test: Human PBMC TNF-α response to endotoxin (ELISA); type: cell-based; details: 0.1 μg/ml LPS 16 h, read-out: EC50 for the inhibition of the human PBMC TNF-α response to endotoxin, ave. ± S.D.
Procedure, shortened: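 PBMCs at 2e6 cells/ml in RPMI 1640 with 10% charcoal-dextran-treated FBS were pre-treated 1 h at 37 °C with compound (4-point 1:5 dilution from 10 μM). Stimulation with 0.1 μg/ml E. coli 0111:B4 LPS for 16 h; TNF-α measured by ELISA (A450) in 25-fold diluted supernatant.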

AurB or AurC = test: Probe-based (AX9989) kinase profiling in Jurkat lysate: AurB or AurC; type: binding; details: screening concentration 1 μM
Procedure, shortened: as §1

T1 sequence (Q07912 whole entry): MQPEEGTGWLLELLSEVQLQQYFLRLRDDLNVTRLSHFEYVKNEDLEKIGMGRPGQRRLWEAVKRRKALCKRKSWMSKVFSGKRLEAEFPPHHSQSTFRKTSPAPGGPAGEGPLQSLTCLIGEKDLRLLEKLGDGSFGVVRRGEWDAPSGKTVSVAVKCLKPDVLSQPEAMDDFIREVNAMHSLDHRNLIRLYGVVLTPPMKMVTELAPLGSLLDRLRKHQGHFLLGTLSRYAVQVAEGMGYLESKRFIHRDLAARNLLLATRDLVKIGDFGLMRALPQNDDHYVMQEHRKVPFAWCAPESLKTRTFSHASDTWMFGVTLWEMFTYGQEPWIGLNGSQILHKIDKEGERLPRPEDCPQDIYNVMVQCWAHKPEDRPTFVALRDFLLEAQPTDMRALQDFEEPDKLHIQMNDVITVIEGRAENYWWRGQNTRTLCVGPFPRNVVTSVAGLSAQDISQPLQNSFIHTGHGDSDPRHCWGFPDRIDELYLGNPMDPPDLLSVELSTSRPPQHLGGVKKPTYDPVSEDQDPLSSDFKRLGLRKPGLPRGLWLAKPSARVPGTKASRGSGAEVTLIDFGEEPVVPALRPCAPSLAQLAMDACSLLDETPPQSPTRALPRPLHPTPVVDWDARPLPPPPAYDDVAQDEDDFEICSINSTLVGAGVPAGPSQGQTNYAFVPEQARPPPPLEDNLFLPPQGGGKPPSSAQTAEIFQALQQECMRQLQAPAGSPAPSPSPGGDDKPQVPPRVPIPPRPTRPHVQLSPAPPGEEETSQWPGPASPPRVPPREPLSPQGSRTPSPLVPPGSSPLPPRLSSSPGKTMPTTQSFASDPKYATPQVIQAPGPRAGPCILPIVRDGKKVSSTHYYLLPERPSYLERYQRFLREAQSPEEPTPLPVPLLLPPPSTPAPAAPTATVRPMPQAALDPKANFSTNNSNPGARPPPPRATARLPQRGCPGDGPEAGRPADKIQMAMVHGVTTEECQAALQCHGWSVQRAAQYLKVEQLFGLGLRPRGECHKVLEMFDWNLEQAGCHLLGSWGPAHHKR

Structure (SMILES)	inhibition at 1 µM (ACK)	inhibition at 1 µM (JAK1)	ABL or ARG Inhibition % at indicated screening concentration (ABL or ARG)	IC50 (ERK5)	inhibition at 1 µM (ERK5)	EC50 (human PBMCs)	AurB or AurC Inhibition % at indicated screening concentration (AurB or AurC)
CCOc1cc(C(=O)N2CCC(N3CC[C@@H](O)C3)CC2)ccc1Nc1cc2c(cn1)N(C)C(=O)c1ccccc1N2C [Compound T10]	≤ 35%	≤ 35%	E (E is ≦35%)	≤ 50 nM	> 90%	650 nM	E (E is ≦35%)
CCOc1cc(C(=O)N2CCC(N3CC[C@H](O)C3)CC2)ccc1Nc1cc2c(cn1)N(C)C(=O)c1ccccc1N2C [Compound T11]	≤ 35%	≤ 35%	E (E is ≦35%)	≤ 50 nM	> 90%	620 nM	E (E is ≦35%)
CCOc1cc(C(=O)N2CCN(CCN(C)C)CC2)ccc1Nc1cc2c(cn1)N(C)C(=O)c1ccccc1N2C [Compound T14]	≤ 35%	≤ 35%	E (E is ≦35%)	≤ 50 nM	> 90%	720 ± 50 nM	E (E is ≦35%)
CCOc1cc(C(=O)N2CCN(CCN3CCOCC3)CC2)ccc1Nc1cc2c(cn1)N(C)C(=O)c1ccccc1N2C [Compound T15]	≤ 35%	≤ 35%	E (E is ≦35%)	≤ 50 nM	> 90%	800 ± 270 nM	E (E is ≦35%)
CCOc1cc(C(=O)N2CCN(C(C)=O)CC2)ccc1Nc1cc2c(cn1)N(C)C(=O)c1ccccc1N2C [Compound T18]	≤ 35%	≤ 35%	E (E is ≦35%)	≤ 50 nM	> 90%	820 ± 100 nM	E (E is ≦35%)
CCOc1cc(C(=O)N2CC[C@@H](N3CCN(C)CC3)C2)ccc1Nc1cc2c(cn1)N(C)C(=O)c1ccccc1N2C [Compound T20]	≤ 35%	≤ 35%	E (E is ≦35%)	≤ 50 nM	> 90%	460 ± 140 nM	E (E is ≦35%)
CCOc1cc(C(=O)N2CC[C@H](C#N)C2)ccc1Nc1cc2c(cn1)N(C)C(=O)c1ccccc1N2C [Compound T22]	≤ 35%	≤ 35%	E (E is ≦35%)	≤ 50 nM	> 90%	820 ± 140 nM	E (E is ≦35%)
CCOc1cc(C(=O)N2CCC(N3CCCN(C)CC3)CC2)ccc1Nc1cc2c(cn1)N(C)C(=O)c1ccccc1N2C [Compound T31]	≤ 35%	≤ 35%	E (E is ≦35%)	≤ 50 nM	> 90%	490 nM	E (E is ≦35%)
CN1CCN(C2CCN(C(=O)c3ccc(Nc4cc5c(cn4)N(C)C(=O)c4ccccc4N5C)c(OCCF)c3)CC2)CC1 [Compound T34]	≤ 35%	≤ 35%	E (E is ≦35%)	≤ 50 nM	> 90%	490 ± 40 nM	E (E is ≦35%)
CCOc1cc(C(=O)N2CCC(NC3CCN(C)CC3)C2)ccc1Nc1cc2c(cn1)N(C)C(=O)c1ccccc1N2C (stereo not shown) [Compound T42]	≤ 35%	≤ 35%	E (E is ≦35%)	50 to 100 nM	> 90%	680 ± 450 nM	E (E is ≦35%)
